According to patent publication US20260002124A1, “ENHANCING NEURONAL DIFFERENTIATION OF VENTRAL MIDBRAIN NEURAL PROGENITOR CELLS” (Novo Nordisk A/S, priority 2022, published 2026):
“And” between values parts separate entries of the source, which are not always exact repeats. Identical values can stand only once.

Legend:
Format in all cases: cell-based, human
[1] = system: ventral midbrain floor plate NSCs; assay: Early in vitro administration of MEKi and/or NOTCHi (DIV16-22), flow cytometry marker expression
Description: (§1) hESCs were differentiated to ventral midbrain neurons according to an established protocol (Nolbrant et al., 2017; Kirkeby et al., 2017). In brief, hESC were grown to 70-90% confluency, then disassociated with 0.5 mM EDTA. The cells were seeded at 10^4 cells/cm^2 in cell culture flasks or plates coated with human laminin-111 (1.2 μg/cm^2; BioLamina) and immediately put into contact with differentiation media. The cells were exposed to N2-based media from days in vitro (DIV) 0-8; 50% DMEM/F12+Glutamax (Gibco), 50% Neurobasal (Gibco), 1% N2 supplement CTS (Thermo Fisher Scientific), 5% GlutaMAX (Thermo Fisher Scientific), 0.2% P-S (Thermo Fisher Scientific) and supplemented with SMAD inhibitors SB431542 (10 μM; Miltenyi Biotec), Noggin (100 ng/mL; Miltenyi Biotec) for neural induction, Sonic Hedgehog C24II (SHH; 500 ng/mL; Miltenyi Biotec) for ventral fate, GSK3B inhibitor CHIR99021 (CHIR; 0.5-0.6 μM; Miltenyi Biotec) to promote caudalization. N2-based media was supplemented with fibroblast growth factor 8b (FGF8b; 100 ng/mL; Miltenyi Biotec) from DIV9-11. At DIV11, the cells were dissociated with accutase (Thermo Fisher Scientific) and seeded at 0.8×10^6 cells/[…] in a cell culture flask or plate coated with human laminin-111 (1.2 μg/cm^2) in DIV11-16 media (Neurobasal, 2% B27 supplement without vitamin A CTS (Thermo Fisher Scientific), 5% GlutaMAX, 0.2% P-S and supplemented with FGF8b (100 ng/mL), L-ascorbic acid (AA; 200 μM; Sigma), human Brain Derived Neurotrophic Factor (BDNF; 20 ng/mL; Miltenyi Biotec)) supplemented with Y-27632 (Miltenyi Biotec) at 10 μM. At day in vitro (DIV) 16, the cells were dissociated with accutase and either cryopreserved, or re-seeded in cell culture flasks/plates coated with poly-L-ornithine (0.002%) and Laminin-521 (1.5 μg/cm^2) in B27 media supplemented with BDNF (20 ng/mL), GDNF (20 ng/mL), L-ascorbic acid (200 μM), dcAMP (500 μM), DAPT (10 μM), and Y-27632 (10 μM) for extended in vitro culture allowing further differentiation and maturation of ventral midbrain neural stem cells into neurons.
(§2) Ventral midbrain dopaminergic (vmDA) progenitor cells were generated from hESCs in 2D in vitro culture as described in Example 1 and using reagents described in Table 1. At various days after initiating the differentiation the cell culture was dissociated into a single cell suspension using Accutase, counted on a NucleoCounter NC-200 and collected in N2 media (CTS™ Neurobasal™ medium supplemented with 1% CTS™ N-2 supplement). Dead cells were labelled using a LIVE/DEAD™ Fixable Near-IR Dead Cell Stain Kit. The cells were then resuspended in B27 media (CTS™ Neurobasal™ medium supplemented with 1% B-27™ supplement without vitamin A, 2 mM GSutaMAX™, 60 U/mL Penicillin-Streptomycin, 10 μM ROCK inhibitor). Cells were then fixed and permeabilized using the BD Transcription Factor Buffer Set (BD Biosciences) according to the manufacturer's instructions. The fixed cells were then stained with fluorescently conjugated antibodies, and the samples acquired on a BD LSR Fortessa or B FACSymphony (BD Biosciences). The fcs files were exported and analyzed in FlowJo 10.5.03.
(§3) To determine whether a cell was considered positive in its protein expression of a marker, gates were set as routinely done in the field at the edge of the fluorescent signal of a negative control sample. Examples of negative control samples used included unstained controls, fluorescence minus one (FMO) controls and most preferably biological negative control samples; all cells present above these threshold gates when experimental samples were run were considered positive. Antibodies: FOXA2 (1:320, Miltenyi), OTX2 (1:320, Miltenyi), SOX2 (1:40, B), LMXTA (1:2500, Novo Nordisk production), […] (1:40, AtlasAntibodies), ASCL1 (1:2500, Mitlenyi), INA (1:3000, AtlasAntibodies). […]

[2] = system: ventral midbrain floor plate NSCs; assay: Late in vitro administration of MEKi and/or NOTCHi (DIV22-29), FCM/ICC marker expression
Description: as §1, §2, §3

VM NPCs = assay: FCM profile of VM neural cells at DIV22 after earlier NOTCHi treatment DIV16-22
Description: as §1, §2, §3

[3] = system: ventral midbrain floor plate NSCs; assay: Immunofluorescence staining after early administration and extended differentiation (DIV35); conditions: early administration; IF staining, extended differentiation DIV35
Description: (§4) Following compound administration and flow cytometry analysis performed in FIGS. 2 and 3, all groups were differentiated for a further 11 days in vitro and then were fixed in 4% paraformaldehyde and stained with DAPI to identify all cell nuclei and primary antibodies against SOX2 (1:300), Ki-67 (1:250), LMX1A (1:3000), INA (1:200), tyrosine hydroxylase (TH; 1:500) and COL1A1 (1:300) followed by fluorescently labelled secondary antibodies. Images were acquired on an Olympus IX81 microscope using CellSens software. The immunofluorescence (IF) staining confirmed the flow cytometry results of FIG. 3 with extended differentiation showing that treatment with a NOTCHi alone reduced, compared to untreated controls, the amount of NSCs identified by SOX2 (FIG. 4A-D) and proliferative cells identified by KI67 (FIG. 5B,D) while maintaining the amount of neuronal cells identified by INA (FIG. 5A,C).
(§5) Cells were fixed in 4% paraformaldehyde (Alfa Aesar) for 10 minutes at room temperature. Unspecific antibody binding was blocked by incubating cells with PADT buffer; phosphate-buffered saline (PBS) without Ca2+ and Mg2+ (Gibco) with 0.02% sodium azide solution (Ampliqon), 0.5% Triton X-100 (Sigma), and 5% Donkey serum (Jackson Labs) for 30 minutes, followed by overnight incubation with primary antibodies (see Table X) at 4° C. The cells were washed 3 times with PBS without Ca2+ and Mg2+, blocked with PADT buffer for 15 minutes, and incubated with fluorophore-conjugated secondary antibodies (see Table X) for 2 hours at room temperature, protected from light. The cells were then counterstained with DAPI (10 μg/mL) for 5 minutes at room temperature, washed 3 times with PBS without Ca2+ and Mg2+, and stored at 4° C. in PBS without Ca2+ and Mg2+ supplemented with 0.02% sodium azide. Images were captured with a Zeiss Axio Observer microscope equipped with an Axiocam 512 camera and ZEN 3.2 (Pro) software (Zeiss).

[4] = system: ventral midbrain floor plate NSCs; assay: Immunofluorescence staining after late administration and extended differentiation (DIV40); conditions: late administration; IF staining, extended differentiation DIV40
Description: as §4, with “Figure,” for “FIGS. 2 and 3,”, “(1:1000),” for “(1:3000), INA (1:200),”, “results” for “results of FIG. 3”, “12A-D)” for “4A-D)”, “13B,D)” for “5B,D)”, “13A,C).” for “5A,C).”
as §5

[5] = early treatment DIV16-22, % of total viable cells, replicates #1-#4
[6] = early treatment, result in words
[7] = late administration DIV22-29, FCM/ICC, % of total cells, replicates #1-#4
[8] = late administration, result in words
[9] = DIV22 after NOTCHi (DAPT) DIV16-22 every 48-72 hrs, flow cytometry, replicates #1-#11
[10] = DIV22 after NOTCHi DIV16-22, Mean of #1-#11

## C[C@H](NC(=O)Cc1cc(F)cc(F)c1)C(=O)NC(C(=O)OC(C)(C)C)c1ccccc1 (stereo partly shown) [NOTCHi]
[1]; [5]
  FOXA2 expressing cells: 85.3% and 72.4% and 93.2%
  Ki67 expressing cells (proliferative marker): 16.6% and 18.6% and 17.7%
  LMX1A expressing cells: 88.4% and 77.2% and 94.5%
  SOX2 expressing cells (NSC marker): 59.6% and 57.3% and 65.7%
[1]; [6]
  expression of NSC marker SOX2 compared to controls: downregulated
  expression of proliferative marker KI67 compared to controls: downregulated
[2]; [7]
  FOXA2 expressing cells: 81.8% and 90.2% and 68% and 92.2%
  INA expressing cells (neuronal marker): 35.4% and 61.5% and 74.1%
  Ki67 expressing cells (proliferative marker): 21.3% and 1.65% and 3.87% and 2.98%
  LMX1A expressing cells: 95.4% and 75.4% and 91.8%
  SOX2 expressing cells (NSC marker): 62.1% and 21.9% and 63.7% and 43.6%
[2]; [8]
  expression of NSC marker SOX2 compared to controls: downregulated
  expression of proliferative marker KI67 compared to controls: downregulated
VM NPCs; [9]
  ASCL1 expressing cells: 41.1% and 41.7% and 45.8% and 16.2% and 17.3% and 25.6% and 50.4% and 57.1% and 40.5% and 51.8% and 36.0%
  FOXA2 expressing cells: 69.7% and 76.2% and 82.7% and 78.0% and 75.5% and 35.2% and 85.4% and 98.2% and 82.1% and 94.9% and 67.6%
  INA expressing cells: 30.5% and 19.2% and 22.4% and 13.8% and 13.3% and 32.0% and 23.6% and 34.2% and 19% and 45.6% and 18.3%
  INA+/SOX2− cells: 13.8% and 4.7% and 6.2% and 2.6% and 5.0% and 6.0% and 7.3% and 13.6% and 5.7% and 20.1% and 7.0%
  Ki67 expressing cells: 6.4% and 8.1% and 9.7% and 7.8% and 5.2% and 19.8% and 5.9% and 4.8% and 6.0% and 6.6% and 6.1%
  SOX2 expressing cells: 70.9% and 86.3% and 88.3% and 77.2% and 78.5% and 76.4% and 72% and 70.5% and 64.7% and 65.7% and 69.5%
VM NPCs; [10]
  ASCL1 expressing cells, Mean: 38.5%
  FOXA2 expressing cells, Mean: 76.9%
  INA expressing cells, Mean: 24.7%
  INA+/SOX2− cells, Mean: 8.4%
  Ki67 expressing cells, Mean: 7.9%
  SOX2 expressing cells, Mean: 74.5%
[3]
  amount of NSCs identified by SOX2 compared to untreated controls: reduced
  amount of neuronal cells identified by INA: maintaining
  expression of ventral midbrain lineage marker LMX1A: did not prevent
  formation of dopamine neurons (TH): did not prevent
  proliferative cells identified by KI67 compared to untreated controls: reduced
  proportion of stromal COL1A1 cells compared to control untreated cultures: dramatically reduced
[4]
  amount of NSCs identified by SOX2 compared to untreated controls: reduced
  amount of neuronal cells identified by INA: maintaining
  expression of ventral midbrain lineage marker LMX1A: did not prevent
  formation of dopamine neurons (TH): did not prevent
  proliferative cells identified by KI67 compared to untreated controls: reduced
  proportion of stromal COL1A1 cells compared to control untreated cultures: dramatically reduced
